{"source": "patent US20250228794A1", "about": "“HOMOVANILLYL ALCOHOL (HVA), HVA ISOMER, METHODS OF MAKING COMPOSITIONS COMPRISING SUCH COMPOUNDS, AND METHODS USING SUCH COMPOUNDS” (SOCIETE DES PRODUITS NESTLE S.A., priority 2017, published 2025)", "key": {"[1]": {"test": "Urinary excretion of oleuropein metabolites after intake of olive leaf extract (pilot study, LC-MS)", "method": "Specifically, urine samples were enzymatically treated to hydrolyze the glucuronide and sulfate moieties and release the free forms which were quantified. After sample purification by liquid-liquid extraction, the chromatographic separation was operated on an Acquity™ UPLC® BEH C18 column (1.7 μm, 2.1×150 mm). The mobile phase consisted of 1 mmol/L ammonium acetate buffer and methanol under gradient conditions at a flow-rate of 0.25 mL/min. Hydroxytyrosol, homovanillyl alcohol, and the homovanillyl alcohol isomer 3-hydroxy-4-methoxyphenethanol (alternatively named 3-hydroxy-4-methoxyphenethyl alcohol) were identified and quantified by high performance liquid chromatography-electrospray ionization tandem mass spectrometry (HPLC-ESI-MS/MS) and by comparison with their corresponding chemically synthesized standards.\nThe circulating concentration and kinetics of absorption of phenolic compounds and their metabolites in biological fluids (plasma or urine) depends on the matrix in which the compounds are ingested, the dose ingested, the time point of sample collection, the microflora of each individual, and the metabolism of each individual. To develop the most appropriate analytical approach for the measurement of OE absorption, a pilot study was conducted. Specifically, five subjects collected urine at baseline (before intake of the olive leaf extract) and between the intakes of two capsules of the olive leaf extract.\nThe analytical method (sample preparation, deconjugation conditions, chromatographic detection and separation) was first developed by spiking chemical standards which were commercially available in commercial urine. The deconjugation conditions were determined by using the conjugates available, hydroxytyrosol sulfate and homovanillyl alcohol glucuronide. The commercially available chemical standards were 3,4-Dihydroxybenzoic acid; 3,4-Dihydroxyphenylacetic acid; Homovanillic acid; Homovanillyl alcohol; Homovanillyl alcohol glucuronide (vanillyl methanol glucuronide); Hydroxytyrosol; Hydroxytyrosol sulfate (hydroxytyrosol sulfate triethylammonium salt); and Vanillic acid.\nBriefly, the sample preparation consisted of a liquid-liquid extraction with ethyl acetate after a protein precipitation using acidified methanol.\nRegarding chromatographic analysis, Oleuropein metabolites were separated by reversed-phase ultra-performance liquid chromatography using a C18-column Acquity UPLC BEH C18 1.7 μm, 2.1 mm×150 mm, (Waters AG, Switzerland). The system consisted of a LC system Acquity™ UPLC® (Waters AG, Switzerland) coupled with a Qtrap 5500 Mass spectrometer detector equipped with an electrospray ionization source (ABSciex, Switzerland). Detection was performed in the negative operating mode at unit resolution.\nSpecifically, a preliminary analysis of the urine samples collected after intake of the olive leaf extract was performed by electrospray ionization (ESI) in the negative ion mode, scanning for the different [M−H]^− ions at the theoretical m/z of the expected oleuropein metabolites and conjugates (Table 1).\nRelative amount of the metabolites identified was first evaluated to clarify if their excretion in urine was increasing after intake of the olive leaf extract. This evaluation was based on the measurement of the area under the corresponding chromatographic peak, which reflects the amount."}, "cyclooxygenase-2 (COX-2)": {"system": "cyclooxygenase-2 (COX-2)", "test": "COX-2 gene expression in chondrocytes (anti-inflammatory effect)", "type": "cell-based", "conditions": "FIG. 17B", "method": "(§1) Chondrocytes in alginate beads were subjected to a two-hour polyphenols pre-treatment followed by a twenty-four hour IL1-α stimulation.\n(§2) Then the anti-inflammatory effect of oleuropein metabolites in chondrocytes was studied.\nRegarding FIG. 17B, cyclooxygenase-2 (COX-2) is another inflammation-related gene. It is linked to the Prostaglandin E2 (PGE2) pathway. OLP, EA and HVOH were efficient at 2 μM. OLP, OEA and HVOH were efficient at 10 μM."}, "inflamed chondrocytes [2]": {"system": "inflamed chondrocytes", "test": "Collagen in culture media of inflamed chondrocytes (catabolism)", "type": "cell-based", "conditions": "FIG. 18B", "from_the_text": "as §1\n(§3) Next it was shown that oleuropein metabolites prevent collagen breakdown in inflamed chondrocytes (FIGS. 18A and 18B). In this regard, collagen in extra-cellular matrix corresponds to the collagen synthesized by the cells, i.e., anabolism. […] Collagen in culture media corresponds to the collagen degraded by cells and released in the media, i.e., […]."}, "inflamed chondrocytes [3]": {"system": "inflamed chondrocytes", "test": "Collagen in extra-cellular matrix of inflamed chondrocytes (anabolism)", "type": "cell-based", "conditions": "FIG. 18A", "from_the_text": "as §1, §3"}, "chondrocytes": {"system": "chondrocytes", "test": "Effects of oleuropein metabolites on chondrocytes (overall)", "type": "cell-based", "conditions": "synthetic form; comparison with hydroxytyrosol", "method": "As also set forth in detail later herein, several metabolites of oleuropein were tested for their effects on chondrocytes.\nas §1"}, "Collagen-II": {"system": "Collagen-II", "test": "Collagen-II gene expression in chondrocytes in alginate beads, IL1-α stimulation", "type": "cell-based", "conditions": "two-hour pre-treatment, twenty-four hour IL1-α stimulation; polyphenols at 10 μM; FIG. 16A", "from_the_text": "as §1\nRegarding FIG. 16A, Collagen-II is an anabolism-related gene for major structural components of the extracellular matrix of joints."}, "[4]": {"system": "inducible isoform of nitric oxide synthase (iNOS)", "test": "iNOS gene expression in chondrocytes (anti-inflammatory effect)", "type": "cell-based", "conditions": "FIG. 17A", "from_the_text": "as §1, §2\nRegarding FIG. 17A, the inducible isoform of nitric oxide synthase (iNOS) is an inflammation-related gene linked to NO production."}, "[5]": {"conditions": "urine after intake of olive leaf extract, LC-MS, MS2/MS3"}}, "data": [{"molecule": "Elenolic acid sulfate [EA-S]", "values": [{"measurement": "detection and identification in urine", "setting": "[1]; in vivo", "value": "Neither ion of elenolic acid sulfate nor of elenolic acid glucuronide (EA-S or EA-G) could be detected"}]}, {"molecule": "Oleuropein aglycone glucuronide", "values": [{"measurement": "Number of forms confirmed in urine", "setting": "[1]; in vivo", "value": 2}, {"measurement": "detection and identification in urine", "setting": "[1]; in vivo", "value": "Presence & identity confirmed"}]}, {"molecule": "Elenolic acid [EA]", "values": [{"measurement": "COX-2 gene expression", "setting": "cyclooxygenase-2 (COX-2); 2 μM", "value": "efficient"}, {"measurement": "detection and identification in urine", "setting": "[1]; in vivo", "value": "none of them could be confirmed as being EA"}, {"measurement": "collagen in culture media (collagen degraded and released, catabolism)", "setting": "inflamed chondrocytes [2]", "value": "potent anti-breakdown effect (improved over control)"}]}, {"molecule": "Oleuropein aglycone sulfate", "values": [{"measurement": "Number of forms confirmed in urine", "setting": "[1]; in vivo", "value": 1}]}, {"molecule": "O=C(O)Cc1ccc(O)c(O)c1", "note": "[3,4-dihydroxyphenylacetic acid, 3,4-Dihydroxyphenylacetic acid]", "values": [{"measurement": "change of amount in urine (area under the peak) after intake of olive leaf extract versus basal", "setting": "[1]; in vivo", "value": "do not increase"}, {"measurement": "detection and identification in urine", "setting": "[1]; in vivo", "value": "detected in samples after intake of the olive leaf extract and in basal samples"}]}, {"molecule": "Hydroxytyrosol sulfate", "values": [{"measurement": "Number of forms confirmed in urine", "setting": "[1]; urine after intake of olive leaf extract", "value": 1}, {"measurement": "detection and identification in urine", "setting": "[1]; [5]", "value": "Presence & identity confirmed"}]}, {"molecule": "CC=C1C(O)OC=C(C(=O)OC)C1CC(=O)OCCc1ccc(O)c(O)c1", "note": "(stereo not drawn) [oleuropein aglycone, 3,4-dihydroxyphenylethanol-elenolic acid]", "values": [{"measurement": "collagen in extra-cellular matrix (collagen synthesized by the cells, anabolism)", "setting": "inflamed chondrocytes [3]", "value": "protective effect"}, {"measurement": "COX-2 gene expression", "setting": "cyclooxygenase-2 (COX-2); 10 μM", "value": "efficient"}, {"measurement": "Number of forms confirmed in urine", "setting": "[1]; in vivo", "value": 1}, {"measurement": "average of the area under the chromatographic peak in urine", "setting": "[1]; in vivo", "value": "2×10^6"}]}, {"molecule": "COc1cc(CCO)ccc1O", "note": "[homovanillyl alcohol]", "values": [{"measurement": "effects on chondrocytes", "setting": "chondrocytes", "value": "more effective than hydroxytyrosol"}, {"measurement": "COX-2 gene expression", "setting": "cyclooxygenase-2 (COX-2); 2 μM", "value": "efficient"}, {"measurement": "COX-2 gene expression", "setting": "cyclooxygenase-2 (COX-2); 10 μM", "value": "efficient"}, {"measurement": "Number of forms confirmed in urine", "setting": "[1]; human, in vivo", "value": 2}, {"measurement": "change of amount in urine (area under the peak) after intake of olive leaf extract versus basal", "setting": "[1]; in vivo", "value": "specifically increase after intake of olive leaf extract"}, {"measurement": "detection and identification in urine", "setting": "[1]; in vivo", "value": "Presence & identity confirmed"}, {"measurement": "form excreted in urine", "setting": "[1]; in vivo", "value": "mainly as conjugated form"}, {"measurement": "collagen in culture media (collagen degraded and released, catabolism)", "setting": "inflamed chondrocytes [2]", "value": "potent anti-breakdown effect (improved over control)"}]}, {"molecule": "COc1cc(CC(=O)O)ccc1O", "note": "[homovanillic acid, Homovanillic acid]", "values": [{"measurement": "change of amount in urine (area under the peak) after intake of olive leaf extract versus basal", "setting": "[1]; FIG. 15, subjects 1 to 5", "value": "do not increase"}]}, {"molecule": "COc1cc(CCO)ccc1O[C@@H]1O[C@H](C(=O)O)[C@@H](O)[C@H](O)[C@H]1O", "note": "[Homovanillyl alcohol glucuronide]", "values": [{"measurement": "Number of forms confirmed in urine", "setting": "[1]; in vivo", "value": 1}, {"measurement": "detection and identification in urine", "setting": "[1]; in vivo", "value": "Presence & identity confirmed"}]}, {"molecule": "O=C(O)c1ccc(O)c(O)c1", "note": "[3,4-dihydroxybenzoic acid]", "values": [{"measurement": "change of amount in urine (area under the peak) after intake of olive leaf extract versus basal", "setting": "[1]; in vivo", "value": "do not increase"}, {"measurement": "detection and identification in urine", "setting": "[1]; in vivo", "value": "detected in samples after intake of the olive leaf extract and in basal samples"}]}, {"molecule": "COc1ccc(CCO)cc1O", "note": "[homovanillyl alcohol isomer, 3-hydroxy-4-methoxyphenethanol]", "values": [{"measurement": "effects on chondrocytes", "setting": "chondrocytes", "value": "more effective than hydroxytyrosol"}, {"measurement": "collagen in culture media (collagen degraded and released, catabolism)", "setting": "inflamed chondrocytes [2]", "value": "potent anti-breakdown effect (improved over control)"}, {"measurement": "Collagen-II gene expression (protective effect)", "setting": "Collagen-II", "value": "significant effect"}, {"measurement": "iNOS gene expression (protective effect)", "setting": "[4]; 2 μM", "value": "significant effect"}, {"measurement": "iNOS gene expression (protective effect)", "setting": "[4]; 10 μM", "value": "significant effect"}]}, {"molecule": "COc1cc(C(=O)O)ccc1O", "note": "[vanillic acid, Vanillic acid]", "values": [{"measurement": "change of amount in urine (area under the peak) after intake of olive leaf extract versus basal", "setting": "[1]; human, in vivo", "value": "strongly increases in urine of subjects 2 and 4, but not as much in subjects 1, 3 and 5"}, {"measurement": "detection and identification in urine", "setting": "[1]; [5]", "value": "detected in samples after intake of the olive leaf extract and in basal samples"}]}, {"molecule": "OCCc1ccc(O)c(O)c1", "note": "[hydroxytyrosol, 3,4-dihydroxyphenylethanol, reference compound]", "values": [{"measurement": "Number of forms confirmed in urine", "setting": "[1]; human, in vivo", "value": 1}, {"measurement": "average of the area under the chromatographic peak in urine", "setting": "[1]; human, in vivo", "value": "7.7×10^6"}, {"measurement": "change of amount in urine (area under the peak) after intake of olive leaf extract versus basal", "setting": "[1]; in vivo", "value": "specifically increase after intake of olive leaf extract"}, {"measurement": "detection and identification in urine", "setting": "[1]; in vivo", "value": "Presence & identity confirmed"}, {"measurement": "form excreted in urine", "setting": "[1]; in vivo", "value": "mainly as conjugated form"}, {"measurement": "relative abundance excreted in urine", "setting": "[1]; in vivo", "value": "more abundant than HVOH"}]}, {"molecule": "Methylated oleuropein aglycone", "values": [{"measurement": "detection and identification in urine", "setting": "[1]; in vivo", "value": "Not detected"}]}]}
